The values that follow come from publication PMC5862592, “CDK8/19 inhibition induces premature G1/S transition and ATR-dependent cell death in prostate cancer cells” (Oncotarget, 2018).

Read-outs that look alike come from different tables or passages of the source.

Assay in all cases: biochemical
Holding throughout (design): KINOMEscan active site-directed competition binding assay (DiscoveRx), 456 kinases, per cent of control at 300 nM
Settings in all cases: read-out: Percent of Control (%)

For test [1], the target named is WNK1 (Homo sapiens, UniProt Q9H4A3). Summed up: (§1)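 Binding was measured with an active site-directed competition binding assay that quantifies compound–kinase interactions. Test compounds were screened at 300 nmol/L across a 456-kinase panel.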
The target in test [2] is T1, MKK7 (Homo sapiens, UniProt O14733).
T1 construct: gene MAP2K7
The procedure, abridged: as §1

For test [3], the target named is NEK5 (Homo sapiens, UniProt Q6P3R8). Summed up: as §1
The target of test [4] is TLK2 (Homo sapiens, UniProt Q86UE8). The procedure, abridged:
as §1

For test [5], the target named is T2, ERK3 (Homo sapiens, UniProt Q16659).
T2 construct: gene MAPK6
Summed up:
as §1

For test [6], the target named is EPHB1 (Homo sapiens, UniProt P54762). The procedure, abridged: as §1
In test [7] the target is DDR1 (Homo sapiens, UniProt Q08345). Summed up: as §1
For test [8], the target named is TNK1 (Homo sapiens, UniProt Q13470). Summed up:
as §1

Test [9] addresses T3, DLK (Homo sapiens, UniProt Q12852).
T3 construct: gene MAP3K12
Summed up: as §1

For test [10], the target named is CHEK2 (Homo sapiens, UniProt O96017). The procedure, abridged: as §1
Test [11] deals with MYO3B (Homo sapiens, UniProt Q8WXR4). The procedure, abridged:
as §1

Test [12] has as its target HCK (Homo sapiens, UniProt P08631). Summed up: as §1
In test [13] the target is T4, ABL1(F317I)-phosphorylated (Homo sapiens, UniProt P00519, F317I).
T4 construct: phosphorylated
Summed up:
as §1

In test [14] the target is MAP3K1 (Homo sapiens, UniProt Q13233). The procedure, abridged:
as §1

Test [15] deals with MYO3A (Homo sapiens, UniProt Q8NEV4). The procedure, abridged: as §1
The target of test [16] is AURKA (Homo sapiens, UniProt O14965). The procedure, abridged: as §1
In test [17] the target is T5, MST2 (Homo sapiens, UniProt Q13188).
T5 construct: gene STK3
The procedure, abridged:
as §1

The target in test [18] is MAP3K15 (Homo sapiens, UniProt Q6ZN16). The procedure, abridged: as §1
In test [19] the target is KIT(D816V) (Homo sapiens, UniProt P10721, D816V). The procedure, abridged:
as §1

In test [20] the target is T6, YANK3 (Homo sapiens, UniProt Q86UX6).
T6 construct: gene STK32C
The procedure, abridged: as §1

Test [21] concerns the target PIK3CA(E542K) (Homo sapiens, UniProt P42336, E542K). The procedure, abridged: as §1
Test [22] concerns the target T7, ABL1-phosphorylated (Homo sapiens, UniProt P00519).
T7 construct: phosphorylated
The procedure, abridged: as §1

T2 sequence (Q16659 whole entry): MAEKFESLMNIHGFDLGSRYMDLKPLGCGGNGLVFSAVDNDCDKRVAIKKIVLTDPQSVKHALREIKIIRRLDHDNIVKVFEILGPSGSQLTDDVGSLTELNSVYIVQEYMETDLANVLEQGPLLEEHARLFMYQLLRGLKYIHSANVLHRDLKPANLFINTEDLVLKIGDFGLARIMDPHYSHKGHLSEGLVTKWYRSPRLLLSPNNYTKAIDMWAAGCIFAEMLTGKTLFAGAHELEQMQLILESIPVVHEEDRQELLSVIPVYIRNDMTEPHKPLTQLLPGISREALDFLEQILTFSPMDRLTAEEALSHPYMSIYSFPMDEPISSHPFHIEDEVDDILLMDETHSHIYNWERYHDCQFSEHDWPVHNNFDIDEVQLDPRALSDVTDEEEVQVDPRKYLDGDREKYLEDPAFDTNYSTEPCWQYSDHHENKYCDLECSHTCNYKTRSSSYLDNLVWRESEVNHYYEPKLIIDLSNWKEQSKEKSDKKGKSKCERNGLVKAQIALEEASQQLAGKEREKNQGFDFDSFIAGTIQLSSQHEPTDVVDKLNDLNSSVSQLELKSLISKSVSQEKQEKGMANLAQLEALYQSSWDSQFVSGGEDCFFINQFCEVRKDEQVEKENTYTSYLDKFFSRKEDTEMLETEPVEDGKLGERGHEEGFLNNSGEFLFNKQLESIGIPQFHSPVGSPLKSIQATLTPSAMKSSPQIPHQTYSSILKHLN
Chain of DDR1 (Q08345 whole entry): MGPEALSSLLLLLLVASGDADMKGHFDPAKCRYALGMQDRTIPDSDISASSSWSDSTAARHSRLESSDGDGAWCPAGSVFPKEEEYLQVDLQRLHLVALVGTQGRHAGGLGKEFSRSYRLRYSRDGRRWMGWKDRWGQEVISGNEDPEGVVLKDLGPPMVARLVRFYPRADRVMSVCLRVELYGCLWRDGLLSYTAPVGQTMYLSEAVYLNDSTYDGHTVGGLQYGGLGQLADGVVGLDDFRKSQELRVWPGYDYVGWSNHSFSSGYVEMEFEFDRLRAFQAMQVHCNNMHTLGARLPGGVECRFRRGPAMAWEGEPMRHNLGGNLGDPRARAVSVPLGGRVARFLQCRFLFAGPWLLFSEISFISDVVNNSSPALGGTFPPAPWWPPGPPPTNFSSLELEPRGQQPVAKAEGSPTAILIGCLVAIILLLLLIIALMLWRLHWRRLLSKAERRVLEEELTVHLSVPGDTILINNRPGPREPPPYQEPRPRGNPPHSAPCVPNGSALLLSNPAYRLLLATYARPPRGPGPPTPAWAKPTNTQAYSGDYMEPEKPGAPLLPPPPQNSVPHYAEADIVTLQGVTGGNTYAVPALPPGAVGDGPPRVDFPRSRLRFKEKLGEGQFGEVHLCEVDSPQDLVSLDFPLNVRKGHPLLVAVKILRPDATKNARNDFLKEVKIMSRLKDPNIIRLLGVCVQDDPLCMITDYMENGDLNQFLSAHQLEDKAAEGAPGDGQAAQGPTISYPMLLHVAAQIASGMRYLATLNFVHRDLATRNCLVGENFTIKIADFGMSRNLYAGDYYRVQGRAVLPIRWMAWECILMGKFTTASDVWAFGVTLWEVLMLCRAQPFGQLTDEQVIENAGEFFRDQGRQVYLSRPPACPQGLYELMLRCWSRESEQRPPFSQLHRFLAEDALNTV
Chain of MYO3B (Q8WXR4 whole entry): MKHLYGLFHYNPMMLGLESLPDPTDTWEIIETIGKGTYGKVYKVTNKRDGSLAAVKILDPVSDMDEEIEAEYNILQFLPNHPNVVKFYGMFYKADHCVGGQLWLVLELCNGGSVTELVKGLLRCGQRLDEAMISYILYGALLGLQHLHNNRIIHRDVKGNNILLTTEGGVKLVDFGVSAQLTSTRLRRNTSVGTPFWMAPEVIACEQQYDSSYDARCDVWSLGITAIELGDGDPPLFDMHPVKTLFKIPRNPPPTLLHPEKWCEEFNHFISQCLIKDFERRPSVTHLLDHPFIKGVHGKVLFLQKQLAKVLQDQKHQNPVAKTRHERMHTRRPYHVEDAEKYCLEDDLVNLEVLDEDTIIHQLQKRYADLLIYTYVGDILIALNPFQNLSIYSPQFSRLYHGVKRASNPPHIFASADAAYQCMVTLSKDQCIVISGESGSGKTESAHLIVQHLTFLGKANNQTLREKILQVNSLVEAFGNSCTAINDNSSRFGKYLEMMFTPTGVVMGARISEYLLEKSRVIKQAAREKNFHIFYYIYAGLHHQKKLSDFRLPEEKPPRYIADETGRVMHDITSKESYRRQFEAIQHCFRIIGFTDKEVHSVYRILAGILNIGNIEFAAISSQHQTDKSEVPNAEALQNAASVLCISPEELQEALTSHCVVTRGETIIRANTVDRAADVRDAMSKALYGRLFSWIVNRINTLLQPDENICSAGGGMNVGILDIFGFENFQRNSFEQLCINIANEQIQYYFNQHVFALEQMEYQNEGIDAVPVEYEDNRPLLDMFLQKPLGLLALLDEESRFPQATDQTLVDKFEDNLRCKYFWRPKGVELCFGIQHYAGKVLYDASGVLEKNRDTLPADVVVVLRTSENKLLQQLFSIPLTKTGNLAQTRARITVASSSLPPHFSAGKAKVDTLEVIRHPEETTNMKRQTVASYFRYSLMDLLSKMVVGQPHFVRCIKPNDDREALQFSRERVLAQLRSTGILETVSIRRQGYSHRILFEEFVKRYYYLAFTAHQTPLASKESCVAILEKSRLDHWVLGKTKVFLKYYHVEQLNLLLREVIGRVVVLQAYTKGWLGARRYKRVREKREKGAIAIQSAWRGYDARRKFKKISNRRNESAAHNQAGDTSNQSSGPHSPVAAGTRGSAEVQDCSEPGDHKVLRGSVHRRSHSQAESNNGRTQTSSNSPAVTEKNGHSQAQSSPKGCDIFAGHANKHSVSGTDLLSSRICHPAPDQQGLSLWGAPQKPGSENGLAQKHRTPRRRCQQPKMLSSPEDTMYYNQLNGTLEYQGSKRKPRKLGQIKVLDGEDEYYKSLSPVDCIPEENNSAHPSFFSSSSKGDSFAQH
Chain of CHEK2 (O96017 whole entry): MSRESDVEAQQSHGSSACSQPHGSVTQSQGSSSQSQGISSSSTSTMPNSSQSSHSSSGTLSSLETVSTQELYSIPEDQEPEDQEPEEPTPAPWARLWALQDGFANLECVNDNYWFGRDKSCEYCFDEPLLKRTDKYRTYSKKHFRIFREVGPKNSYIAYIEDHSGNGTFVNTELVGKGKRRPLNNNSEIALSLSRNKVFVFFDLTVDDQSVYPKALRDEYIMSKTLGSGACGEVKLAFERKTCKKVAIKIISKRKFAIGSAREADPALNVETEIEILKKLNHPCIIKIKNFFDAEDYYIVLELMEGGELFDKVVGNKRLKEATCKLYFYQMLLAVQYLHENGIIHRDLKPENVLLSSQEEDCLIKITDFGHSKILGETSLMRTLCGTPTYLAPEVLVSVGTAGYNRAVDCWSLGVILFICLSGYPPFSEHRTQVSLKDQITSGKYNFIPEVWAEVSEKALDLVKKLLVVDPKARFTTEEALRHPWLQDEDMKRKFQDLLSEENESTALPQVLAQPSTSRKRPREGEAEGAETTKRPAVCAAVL
Chain of AURKA (O14965 whole entry): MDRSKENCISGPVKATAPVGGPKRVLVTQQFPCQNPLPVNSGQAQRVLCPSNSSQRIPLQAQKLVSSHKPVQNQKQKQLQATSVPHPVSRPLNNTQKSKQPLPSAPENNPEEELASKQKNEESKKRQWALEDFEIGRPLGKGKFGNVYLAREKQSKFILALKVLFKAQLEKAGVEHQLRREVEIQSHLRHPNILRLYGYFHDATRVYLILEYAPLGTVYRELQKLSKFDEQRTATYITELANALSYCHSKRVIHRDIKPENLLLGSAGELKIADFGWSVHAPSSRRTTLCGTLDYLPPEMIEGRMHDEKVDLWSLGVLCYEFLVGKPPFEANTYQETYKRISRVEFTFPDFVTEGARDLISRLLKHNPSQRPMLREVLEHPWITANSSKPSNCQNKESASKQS
T1 sequence (O14733 whole entry): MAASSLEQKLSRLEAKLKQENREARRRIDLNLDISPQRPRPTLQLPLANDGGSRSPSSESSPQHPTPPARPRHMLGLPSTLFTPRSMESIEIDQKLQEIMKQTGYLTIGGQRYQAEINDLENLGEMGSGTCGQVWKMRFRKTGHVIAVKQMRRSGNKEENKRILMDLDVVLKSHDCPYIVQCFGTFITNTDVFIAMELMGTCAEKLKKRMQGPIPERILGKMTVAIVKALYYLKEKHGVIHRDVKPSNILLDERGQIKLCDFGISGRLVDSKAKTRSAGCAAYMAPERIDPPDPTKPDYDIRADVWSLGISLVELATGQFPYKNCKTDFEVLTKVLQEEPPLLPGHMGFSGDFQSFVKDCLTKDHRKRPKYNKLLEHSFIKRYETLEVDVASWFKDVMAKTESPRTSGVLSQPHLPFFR
Chain of TNK1 (Q13470 whole entry): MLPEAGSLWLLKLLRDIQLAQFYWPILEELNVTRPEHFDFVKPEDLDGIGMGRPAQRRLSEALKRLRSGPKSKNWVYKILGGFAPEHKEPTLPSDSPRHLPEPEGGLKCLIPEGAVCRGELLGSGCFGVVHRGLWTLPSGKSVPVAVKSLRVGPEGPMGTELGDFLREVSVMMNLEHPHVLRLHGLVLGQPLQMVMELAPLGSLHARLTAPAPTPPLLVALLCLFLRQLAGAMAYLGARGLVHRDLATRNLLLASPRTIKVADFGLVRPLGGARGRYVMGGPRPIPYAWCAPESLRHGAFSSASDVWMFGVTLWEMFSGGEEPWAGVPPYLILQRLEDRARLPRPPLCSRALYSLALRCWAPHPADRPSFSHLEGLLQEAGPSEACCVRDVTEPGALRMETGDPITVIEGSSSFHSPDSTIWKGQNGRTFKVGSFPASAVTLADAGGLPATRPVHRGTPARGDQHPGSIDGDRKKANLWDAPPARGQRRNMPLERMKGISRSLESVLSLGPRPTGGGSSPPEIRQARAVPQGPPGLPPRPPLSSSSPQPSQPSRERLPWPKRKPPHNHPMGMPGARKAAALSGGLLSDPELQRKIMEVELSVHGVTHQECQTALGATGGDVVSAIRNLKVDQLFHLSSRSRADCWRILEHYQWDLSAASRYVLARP

With `Cc1ncccc1Oc1sc(C(N)=O)c2c1-c1c(cnn1C)CC2` [T-474, 1-methyl-8-((2-methylpyridin-3-yl)oxy)-4,5-dihydro-1H-thieno[3,4-g]indazole-6-carboxamide], the remaining binding at 0.3 µM in test [1] came to 100%; in test [2], 100%; in test [3], 100%; in test [4] it was 100%; in test [5], 78%; in test [6] it was 82%. For the same compound, the remaining binding at 0.3 µM came out at 100% in [7]; 98% in [8]; 94% in [9]; 100% in [10]; 84% in test [11]; 100% in [12]. In addition, the remaining binding at 0.3 µM was determined as 100% in test [13]; 84% in test [14]; 100% in [15]; 100% in test [16]; 50% in test [17]; 100% in test [18]. Besides, the remaining binding at 0.3 µM in test [19] was 94%; in test [20], 100%; in test [21] it was 100%; in test [22], 100%.

With `O=C(/C=C/c1cnccc1-c1ccc(F)cc1)Nc1ccc(CCc2nnco2)cc1` [T-418, (2E)-3-(4-(4-fluorophenyl)pyridin-3-yl)-N-(4-(2-(1,3,4-oxadiazol-2-yl)ethyl)phenyl)acrylamide], the remaining binding at 0.3 µM worked out at 100% in [1] (sheet T-418); 100% in [2] (sheet T-418); 100% in [3] (sheet T-418); 100% in test [4] (sheet T-418); 68% in test [5] (sheet T-418); 86% in test [6] (sheet T-418). In addition, the remaining binding at 0.3 µM in [7] (sheet T-418) stood at 100%; in test [8] (sheet T-418), 87%; in test [9] (sheet T-418) it was 91%; in test [10] (sheet T-418), 89%; in test [11] (sheet T-418) it was 52%; in [12] (sheet T-418), 100%. In addition, the remaining binding at 0.3 µM in test [13] (sheet T-418) stood at 100%; in test [14] (sheet T-418), 100%; in test [15] (sheet T-418) it was 100%; in test [16] (sheet T-418), 100%; in test [17] (sheet T-418) it was 46%; in test [18] (sheet T-418) it was 100%. The remaining binding at 0.3 µM in test [19] (sheet T-418) stood at 96%; in test [20] (sheet T-418), 100%; in test [21] (sheet T-418), 100%; in test [22] (sheet T-418) it was 89%.
